According to patent US9382286B2, “Treatment of EBV and KHSV infection and associated abnormal cellular proliferation” (EMORY UNIVERSITY, priority 2001, dated 2016):

Experiments:
[1] = target: T1, EBV-TK (Epstein-Barr virus, UniProt P03177); test: Selectivity for EBV-TK: thymidine phosphorylation competition and cytotoxicity assays on EBV-TK-expressing cells; format: cell-based; settings: EBV-TK versus human cellular thymidine kinase
T1 construct: expressed in transfected cells; host or cells: 143B TK- human osteosarcoma cells and 293 human embryonic kidney cells, stably transfected with pCMV EBV-TK
T1 sequence (P03177 whole entry): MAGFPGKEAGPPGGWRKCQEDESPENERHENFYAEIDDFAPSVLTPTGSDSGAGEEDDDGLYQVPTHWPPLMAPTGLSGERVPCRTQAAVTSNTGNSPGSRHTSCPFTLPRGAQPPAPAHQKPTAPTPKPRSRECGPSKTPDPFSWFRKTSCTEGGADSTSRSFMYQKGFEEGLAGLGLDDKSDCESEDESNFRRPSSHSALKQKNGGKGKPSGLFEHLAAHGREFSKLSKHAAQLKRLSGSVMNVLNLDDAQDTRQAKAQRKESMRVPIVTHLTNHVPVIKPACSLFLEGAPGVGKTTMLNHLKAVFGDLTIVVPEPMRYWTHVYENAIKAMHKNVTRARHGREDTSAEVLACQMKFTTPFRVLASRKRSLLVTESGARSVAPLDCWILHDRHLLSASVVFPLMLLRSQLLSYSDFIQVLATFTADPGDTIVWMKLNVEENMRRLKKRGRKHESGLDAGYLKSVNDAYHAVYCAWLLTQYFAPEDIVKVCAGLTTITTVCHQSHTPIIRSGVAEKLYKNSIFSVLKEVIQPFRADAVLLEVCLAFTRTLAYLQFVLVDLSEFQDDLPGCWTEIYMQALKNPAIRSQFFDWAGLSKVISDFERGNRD
Description: J. Virol. 74, 684-692). EBV-TK was incubated in an optimized buffer with 15 μM 3H-dT as substrate in a final volume of 100 μL. The enzyme source was either lysate from 143B EBV-TK-expressing cells or purified GST EBV-TK from E. coli. The amount of enzyme was adjusted so that the reaction proceeded linearly for over 60 min. A 10-fold excess (150 μM) of the nucleoside analog being tested was included in the experiment. The reaction was halted at 30 min. by spotting 50 μL of the reaction onto positively charged DE-81 discs (Whatman). After washing four times with 5 mM ammonium formate and once with 95% ethanol, the discs were dried and counted in a scintillation counter. The CPM of the positive control reaction containing no nucleoside analog was taken as 100% activity.
This assay measures the ability of a candidate nucleoside to specifically eliminate EBV-infected cells in the continuous presence of drug. 143B TK-cells lack TK-1. 293 cells contain human TK-1. Therefore, these assays comparatively assess the effects of human TK expression on toxicity. Stock solutions (20-40 mM) of the compounds were prepared in sterile DMSO and then diluted to the desired concentration in growth medium. The cells (143B TK-, 293 EBV-TK or 293 Neo control cells) were cultured in the presence of drug for 5 days, and the media was replaced with fresh media containing drug on day three. Cells were then washed one time with PBS, fixed with 4% formaldehyde/1% methanol and stained with 1% crystal violet in 20% ethanol for visualization of the cell monolayer. […] Cultures with this designation often have media that is still “pink,” indicating a slowdown of cellular metabolism. Identical samples are assessed in triplicate.
Stock solutions (20-40 mM) of the compounds were prepared in sterile DMSO and then diluted to the desired concentration in growth medium. Exponentially growing cells were incubated with the nucleoside in question for 24 h, plated in 24-well plates at 50 viable cells per well and incubated for 7-9 days in the absence of drug. Cells were fixed and stained as above and colonies were counted. A nucleoside can cause a decrease in the number of colonies, which is an indirect indication of the number of cells able to survive and to replicate after the initial exposure to drug.
Two cell systems are employed to determine the toxicity of each nucleoside. The information obtained depends upon the system used. In 143B TK-cells, cytotoxic drugs that are dependent upon phosphorylation by a TK are easily identified. 143B TK-cells expressing either EBV-TK or hTK1 permit assessment of whether either enzyme independently may cause a drug to become cytotoxic. Thus, drugs that can be activated by hTK1, which would cause non-specific cytotoxicity, are readily identified. One drawback is that these cells are grown in HAT media that “forces” nucleosides through the TK salvage pathway (EBV-TK or hTK1). A false positive may arise if a nucleoside out-competes dT for phosphorylation such that sufficient amounts of dT are not available for cellular replication. This toxicity may not be present or may be reduced in a cell that has the synthetic as well as salvage pathways available for dTTP production. For this reason, the 293 system was developed. These cells have endogenous hTK1 and EBV-TK is maintained by selection in G418. Thus, the normal hTK1 salvage pathway is operational, and nucleosides can be expected to flux through the cells normally. Drugs are incubated with 293 cells transformed with a neomycin (Neo) expressing plasmid (Neo control) and with cells transfected with the same plasmid also expressing EBV-TK. A nucleoside selectively activated by EBV-TK should cause toxicity on 293 EBV-TK and not on 293 Neo control cells. In both the 143B and 293 cell systems, toxicity is evaluated by cell survival. The cells are cultured in the presence of drug for 5 days, and the media replaced with fresh media containing drug on day 3. […]

[2] = system: HIV-1LAI; test: Anti-HIV-1 activity in human PBM cells; format: cell-based; settings: Human immunodeficiency virus 1, PBMC; read-out: EC50 against human immunodeficiency virus type 1
Description: Anti-HIV-1 activity of the compounds was determined in human peripheral blood mononuclear (PBM) cells as described previously (Schinazi R. F., McMillan A., Cannon D., Mathis R., Lloyd R. M. Jr., Peck A., Sommadossi J.-P., St. Clair M., Wilson J., Furman P. A., Painter G., Choi W.-B., Liotta D. C. Antimicrob. Agents Chemother. 1992, 36, 2423; Schinazi, R. F., Sommadossi J.-P., Saalmann V., Cannon D., Xie M.-Y., Hart G., Smith G., Hahn E. Antimicrob. Agents Chemother. 1990, 34, 1061). Stock solutions (20-40 mM) of the compounds were prepared in sterile DMSO and then diluted to the desired concentration in growth medium. Cells were infected with the prototype HIV-1LAI at a multiplicity of infection of 0.01. Virus obtained from the cell supernatant was quantified on day 6 after infection by a reverse transcriptase assay using (rA)n.(dT)12-18 as template-primer. The DMSO present in the diluted solution (<0.1%) had no effect on the virus yield. AZT was included as positive control. The toxicity of some compounds was assessed in Vero, human PBM, and CEM cells, as described previously (Schinazi R. F., Sommadossi J.-P., Saalmann V., Cannon D. L., Xie M.-Y., Hart G. C., Smith G. A., Hahn E. F. Antimicrob Agents Chemother. 1990, 34, 1061-1067). Cycloheximide was included as positive cytotoxic control, and untreated cells exposed to solvent were included as negative controls. […]

Structure (SMILES)	selectivity for EBV-TK (specifically phosphorylated and converted into a cytotoxic agent by EBV-TK) [1]	EC50 [2] [nM]
O=C(O)/C=C/c1cn([C@H]2CC(O)[C@@H](CO)O2)c(=O)[nH]c1=O (stereo partly drawn) [β-D-5-E-(2-carboxyvinyl)-2′-deoxyuridine]	selectivity for EBV-TK	–
O=c1[nH]c(=O)n([C@@H]2CO[C@H](CO)O2)cc1-c1cccs1 [(2S,4S)-5-(2-thienyl)-1-[2-(hydroxymethyl)-1,3-dioxolan-4-yl]uracil]	selectivity for EBV-TK	–
O=c1[nH]c(=O)n([C@@H]2CC(O)[C@H](CO)O2)cc1I (stereo partly drawn) [β-L-2′-deoxy-5-iodouridine]	selectivity for EBV-TK	–
CCCCc1cn([C@H]2CC(O)[C@@H](CO)O2)c(=O)[nH]c1=O (stereo partly drawn) [β-D-5-butyl-2′-deoxyuridine]	selectivity for EBV-TK	–
C=Cc1cn([C@H]2O[C@@H](CO)C(O)C2O)c(=O)[nH]c1=O (stereo partly drawn) [β-L-5-vinyluridine]	selectivity for EBV-TK	–
O=c1[nH]c(=O)n([C@@H]2CO[C@H](CO)O2)cc1-c1ccco1 [(2S,4S)-5-(2-furanyl)-1-[2-(hydroxymethyl)-1,3-dioxolan-4-yl]uracil]	selectivity for EBV-TK	–
O=c1[nH]c(=O)n([C@@H]2CO[C@H](CO)O2)cc1-c1ccc(Br)s1 [(2S,4S)-5-(5-bromthien-2-yl)-1-[2-(hydroxymethyl)-1,3-dioxolan-4-yl]uracil]	selectivity for EBV-TK	–
C=Cc1cn([C@@H]2CC(O)[C@H](CO)O2)c(=O)[nH]c1=O (stereo partly drawn) [β-L-2′-deoxy-5-vinyluridine]	selectivity for EBV-TK	–
C=Cc1cn([C@H]2CC(O)[C@@H](CO)O2)c(=O)[nH]c1=O (stereo partly drawn) [5-vinyl-dU, β-D-2′-deoxy-5-vinyluridine]	selectivity for EBV-TK	–
O=c1[nH]c(=O)n([C@@H]2CO[C@H](CO)O2)cc1-c1ccc(Br)o1 [(2S,4S)-5-(5-bromo-2-furanyl)-1-[2-(hydroxymethyl)-1,3-dioxolan-4-yl]uracil]	selectivity for EBV-TK	–
O=c1[nH]c(=O)n([C@@H]2CO[C@H](CO)O2)cc1/C=C/CO [(2S,4S)-5-(3-hydroxypropenyl)-1-[2-(hydroxymethyl)-1,3-dioxolan-4-yl]uracil]	selectivity for EBV-TK	–
C#Cc1cn([C@H]2CC(O)[C@@H](CO)O2)c(=O)[nH]c1=O (stereo partly drawn) [5-ethynyl-dU, β-D-2′-deoxy-5-ethynyluridine]	–	610
O=c1[nH]c(=O)n([C@H]2CC(O)[C@@H](CO)O2)cc1CO (stereo partly drawn) [β-D-2′-deoxy-5-(hydroxymethyl)uridine]	selectivity for EBV-TK	–
